± gives the standard deviation of the reports.
SMILES | glass transition temperature [°C]
*C1C(=O)N(c2c(CC)cccc2CC)C(=O)C1* (repeat unit) | 288.00
*c1ccc(C(=O)OCCCCCCCCCCCCOC(=O)c2ccc(-c3nnc(*)s3)cc2)cc1 (repeat unit) | 68.00
*Oc1cccc(*)c1 (repeat unit) | 53.00
*CC(*)C(=O)OCCCCCCC (repeat unit) | -60.00
*OC(CC(*)=O)C(Cl)(Cl)Cl (repeat unit) | 163.50
*O[Si](*)(C)CCCCCCCCCCC(=O)Oc1ccc(OC(=O)c2ccc(OCC(C)CC)cc2)cc1 (repeat unit) | 13.40
*OC(=O)C(Cc1ccccc1)NC(=O)CCCCCCC(=O)NC(Cc1ccccc1)C(=O)OC1COC2C(*)COC12 (repeat unit) | 91.00
*CC(OCC)C1C(=O)OC(=O)C1* (repeat unit) | 146.00
*/C(C)=C(/*)CCCCC (repeat unit) | 180.00
*CC(*)OC(=O)OCC(Cl)(Cl)Cl (repeat unit) | 74.00
*CCCCCCCCCCCCOC(=O)c1ccc2cc(C(=O)O*)ccc2c1 (repeat unit) | 45.00
*CC(*)C(=O)OCCOCC1(CC)COC1 (repeat unit) | -16.00
*CC(*)C(=O)OCCSCC (repeat unit) | -71.00
*CC(*)(CC(=O)OCCOCCOCCOC)C(=O)OCCOCCOCCOC (repeat unit) | -19.00
*O[Si](C)(C)O[Si](C)(C)OC(C)CCC(*)C (repeat unit) | -83.00
*OP(=O)(Oc1ccc(C)cc1)Oc1c(C)cc(S(=O)(=O)c2cc(C)c(*)c(C)c2)cc1C (repeat unit) | 128.00
*OC(C)C#CC#CC(C)OC(=O)c1ccc(C(*)=O)cc1 (repeat unit) | 133.00
*OC(=O)c1ccc(/N=N/c2ccc(C(=O)OC3COC4C(*)COC34)cc2)cc1 (repeat unit) | 98.00
*CC(*)C(=O)N1CC[NH+](CC)CC1 (repeat unit) | 72.50
*CCCCCCCCOc1c(OC)cc(/C=C/c2cc(CCCCCC)c(/C=C/c3cc(OC)c(O*)c(OC)c3)cc2CCCCCC)cc1OC (repeat unit) | 21.00
*CCc1ccc(*)o1 (repeat unit) | 25.50
*OC(C)COC(=O)c1cccc(C(*)=O)c1 (repeat unit) | 77.00
*Oc1ccc(C(=O)OCCOCCOC(=O)c2ccc(OC(*)=O)cc2)cc1 (repeat unit) | 51.00
*CC(*)C(=O)OCCOCCOC(F)(F)C(F)F (repeat unit) | -40.00
*Nc1ccc(NC(=O)c2ccc(NC(=O)CCCCCCCCC(=O)Nc3ccc(C(*)=O)cc3)cc2)cc1C(=O)OCCCCCCCCCCCCCCCCCC (repeat unit) | 280.00
*Oc1ccc(C(=O)OCCCOC(=O)c2ccc(*)cc2)cc1 (repeat unit) | 57.00
*CC(=O)NCCCCCCNC(=O)COC(=O)CCCCCCC(=O)O* (repeat unit) | 8.00

Now from value to compound:

glass transition temperature [°C] | SMILES
239.00 | *c1ccc(C(c2ccccc2)c2ccc(N(c3ccc(C)cc3)c3ccc(-c4ccc(N(*)c5ccc(C)cc5)cc4)cc3)cc2)cc1 (repeat unit)
345.00 | *Nc1ccc(C(=O)c2c(C)c(C)c(C(=O)c3ccc(NC(=O)c4ccc(C(*)=O)cc4)cc3)c(C)c2C)cc1 (repeat unit)
214.00 | *Oc1ccc(C2(c3ccc(OC(=O)OC4C(C)(C)C(OC(*)=O)C4(C)C)cc3)c3ccccc3-c3ccccc32)cc1 (repeat unit)
202.00 | *c1ccc(Oc2ccc(C(=O)c3cccc(C(=O)c4ccc(Oc5ccc(-c6nc(-c7ccccn7)nnc6*)cc5)cc4)c3)cc2)cc1 (repeat unit)
268.00 | *C(=O)Nc1ccc(Oc2ccccc2-c2ccccc2Oc2ccc(NC(=O)c3ccc4c(c3)C(=O)N(c3ccc(N5C(=O)c6ccc(*)cc6C5=O)cc3)C4=O)cc2)cc1 (repeat unit)
238.00 | *c1cccc(Oc2cccc(Oc3cccc(N4C(=O)c5c(c(-c6ccccc6)c(-c6ccc(Oc7ccc(Oc8ccc(-c9c(-c%10ccccc%10)c%10c(c(-c%11ccccc%11)c9-c9ccccc9)C(=O)N(*)C%10=O)cc8)cc7)cc6)c(-c6ccccc6)c5-c5ccccc5)C4=O)c3)c2)c1 (repeat unit)
73.00 | *O[Si](C)(C)COC(=O)CCCCCCCCC(=O)Oc1ccc(S(=O)(=O)c2ccc(Oc3ccc(/C=C4\CC/C(=C\c5ccc(Oc6ccc(S(=O)(=O)c7ccc(OC(=O)CCCCCCCCC(=O)OC[Si](*)(C)C)cc7)cc6)cc5)C4=O)cc3)cc2)cc1 (repeat unit)
232.00 | *c1cccc(C(=O)c2ccc(Oc3ccc(N4C(=O)c5ccc(Oc6ccc7c(c6)C(=O)N(*)C7=O)cc5C4=O)cc3)cc2)c1 (repeat unit)
252.20 | *c1cc(Oc2c(C)cc(-c3cc(C)c(Oc4cc(N5C(=O)c6ccc(Oc7ccc8c(c7)C(=O)N(*)C8=O)cc6C5=O)cc(C(F)(F)F)c4)c(C)c3)cc2C)cc(C(F)(F)F)c1 (repeat unit)
280.00 | *c1ccc2c(c1)C(=O)N(c1ccc(Oc3cccc(Oc4ccc(N5C(=O)c6ccc(C(*)(C(F)(F)F)C(F)(F)F)cc6C5=O)cc4)c3C#N)cc1)C2=O (repeat unit)
324.00 | *c1ccc(Cc2ccc(N3C(=O)CC(Nc4ccc(N(c5ccc(Nc6ccc([N+](=O)[O-])cc6)cc5)c5ccc(NC6CC(=O)N(*)C6=O)cc5)cc4)C3=O)cc2)cc1 (repeat unit)
290.00 | *c1ccc(Oc2ccc(S(=O)(=O)c3ccc(Oc4ccc(-c5c6c(c(*)c7ccccc57)C(=O)N(c5ccc(C(F)(F)F)cc5)C6=O)cc4)cc3)cc2)cc1 (repeat unit)
127.00 | *CCOC(=O)Nc1ccc(Cc2ccc(NC(=O)OCCOc3ccc(C(C)(C)c4ccc(O*)cc4)cc3)cc2)cc1 (repeat unit)
164.00 | *CC(*)(C)C(=O)OCCn1c2ccccc2c2cc(/N=N/c3ccc([N+](=O)[O-])cc3)ccc21 (repeat unit)
327.00 | *c1ccc(NC(=O)c2cc(C(=O)Nc3ccc(-c4nnc(*)o4)cc3)cc(N3C(=O)c4ccccc4C3=O)c2)cc1 (repeat unit)
147.00 | *Oc1ccc(NC(=O)c2ccc(Oc3ccc(C(C)(C)c4cccc(C(C)(C)c5ccc(Oc6ccc(C(=O)Nc7ccc(Oc8ccc(C(C)(C)c9ccc(*)cc9)cc8)cc7)cc6)cc5)c4)cc3)cc2)cc1 (repeat unit)
63.00 | *CCN(CCOC(=O)CCC#CC#CCCC(=O)O*)c1ccc(/N=N/c2c(C)cc(/N=N/c3ccc(C#N)cc3)cc2C)cc1 (repeat unit)

glass transition temperature [°C] | SMILES
400.00 | *c1ccc(Oc2cccc(-n3c(=O)c4cc5c(=O)n(-c6cccc(Oc7ccc(-c8nc9cc%10sc(*)nc%10cc9s8)cc7)c6)c(=O)c5cc4c3=O)c2)cc1 (repeat unit)
319.00 | *Nc1ccc(C2(c3ccc(NC(=O)c4ccc(C(*)=O)cc4)cc3)c3ccccc3-c3ccccc32)cc1 (repeat unit)
395.00 | *c1ccc(C)c(N2C(=O)c3ccc(-c4ccc5c(c4)C(=O)N(*)C5=O)cc3C2=O)c1 (repeat unit)
165.00 | *c1cccc(OCCCCCOc2cccc(N3C(=O)c4ccc(-c5ccc6c(c5)C(=O)N(*)C6=O)cc4C3=O)c2)c1 (repeat unit)
247.00 ± 16 | *c1ccc2c(c1)C(=O)N(c1ccc(Oc3ccc(C(c4ccc(Oc5ccc(N6C(=O)c7ccc(C(*)(C(F)(F)F)C(F)(F)F)cc7C6=O)cc5)cc4)(C(F)(F)F)C(F)(F)F)cc3)cc1)C2=O (repeat unit)
223.00 | *C(=O)Nc1ccc(Oc2ccc(N3C(=O)CC(N4C(=O)c5ccc(*)cc5C4=O)C3=O)cc2)cc1 (repeat unit)
74.00 | *OC(c1ccco1)C(OC(=O)Nc1ccc(Cc2ccc(NC(*)=O)cc2)cc1)c1ccco1 (repeat unit)
172.00 | *CCCCCCN1C(=O)C(=O)N(c2ccc(Oc3ccc(N4C(=O)C(=O)N(*)C4=O)cc3)cc2)C1=O (repeat unit)
134.00 | *Oc1ccc(Oc2ccc(C(=O)c3ccc(*)cc3)cc2)cc1-c1cccc(C(F)(F)F)c1 (repeat unit)
232.00 | *C(=O)c1ccc2c(c1)C(=O)N(c1ccc(Oc3ccc(NC(=O)c4cccc(C(=O)Nc5ccc(Oc6ccc(N7C(=O)c8ccc(*)cc8C7=O)cc6)cc5)c4)cc3)cc1)C2=O (repeat unit)
278.00 | *C(=O)Nc1ccc(C2(c3ccc(NC(=O)c4ccc5c(c4)C(=O)N(c4ccc(Oc6cccc(Oc7ccc(N8C(=O)c9ccc(*)cc9C8=O)cc7)c6)cc4)C5=O)cc3)c3ccccc3-c3ccccc32)cc1 (repeat unit)
314.00 | *c1ccc(Oc2ccc(S(=O)(=O)c3ccc(Oc4ccc(-c5c6c(c(*)c7ccccc57)C(=O)N(C)C6=O)cc4)cc3)cc2)cc1 (repeat unit)
200.00 | *c1ccc(Oc2ccc(S(=O)(=O)c3ccc(Oc4ccc(N5C(=O)c6ccc(Oc7ccc(C(C)(C)c8ccc(Oc9ccc%10c(c9)C(=O)N(*)C%10=O)cc8)cc7)cc6C5=O)cc4)cc3)cc2)cc1 (repeat unit)
206.40 | *c1ccc2c(c1)C(=O)N(c1ccc(Oc3ccc(C(=O)c4cccc(C(=O)c5ccc(Oc6ccc(N7C(=O)c8ccc(C(*)(C(F)(F)F)C(F)(F)F)cc8C7=O)cc6C(F)(F)F)cc5)n4)cc3)c(C(F)(F)F)c1)C2=O (repeat unit)
81.00 | *O[Si](C)(C)COC(=O)CCCCCCCCC(=O)Oc1ccc(S(=O)(=O)c2ccc(Oc3ccc(/C=C4\CCCC/C(=C\c5ccc(Oc6ccc(S(=O)(=O)c7ccc(OC(=O)CCCCCCCCC(=O)OC[Si](*)(C)C)cc7)cc6)cc5)C4=O)cc3)cc2)cc1 (repeat unit)
260.00 | *c1ccc(N2C(=O)c3ccc(C(=O)c4ccc5c(c4)C(=O)N(c4ccc(-c6nc7cc(-c8ccc9nc(-c%10ccccc%10)c(*)nc9c8)ccc7nc6-c6ccccc6)cc4)C5=O)cc3C2=O)cc1 (repeat unit)

— the PolyMetriX glass transition set
